Source: publication PMC4498814, “Genetic Evidence for Function of the bHLH-PAS Protein Gce/Met As a Juvenile Hormone Receptor” (PLoS Genetics, 2015)
Like-named read-outs stand apart in the source and are kept apart here.

Columns and labels:
[1] = target: T1, Gce (germ cell-expressed) (Drosophila melanogaster, UniProt Q9VXW7); assay: [3H]JH III radioligand saturation binding, dextran-coated charcoal assay
T1 construct: amino acids 1–689, translated in vitro
T1 sequence (Q9VXW7 269-959): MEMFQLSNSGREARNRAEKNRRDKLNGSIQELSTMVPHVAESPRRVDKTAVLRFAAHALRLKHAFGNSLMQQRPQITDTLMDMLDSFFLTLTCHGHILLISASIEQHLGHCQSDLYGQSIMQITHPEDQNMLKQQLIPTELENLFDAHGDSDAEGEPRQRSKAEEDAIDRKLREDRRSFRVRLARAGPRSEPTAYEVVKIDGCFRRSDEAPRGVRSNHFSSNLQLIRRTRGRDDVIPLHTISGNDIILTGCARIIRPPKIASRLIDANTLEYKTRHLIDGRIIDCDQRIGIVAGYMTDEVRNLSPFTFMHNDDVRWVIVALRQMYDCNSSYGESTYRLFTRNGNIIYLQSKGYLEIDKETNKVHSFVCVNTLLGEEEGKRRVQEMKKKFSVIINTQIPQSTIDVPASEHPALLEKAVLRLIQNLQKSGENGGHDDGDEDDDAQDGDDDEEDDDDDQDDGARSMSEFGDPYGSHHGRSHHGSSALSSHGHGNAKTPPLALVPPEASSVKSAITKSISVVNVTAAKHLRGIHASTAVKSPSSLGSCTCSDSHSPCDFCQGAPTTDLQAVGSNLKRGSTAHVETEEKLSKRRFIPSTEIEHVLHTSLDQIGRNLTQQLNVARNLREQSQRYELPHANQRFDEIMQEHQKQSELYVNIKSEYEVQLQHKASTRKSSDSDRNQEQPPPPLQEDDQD

[2] = target: T2, Met (Methoprene-tolerant) (Drosophila melanogaster, UniProt Q9VYW2); assay: JHRE-luc reporter in S2 cells with endogenous Met and Gce depleted; pocket mutants inactive; assay type: cell-based
T2 construct: amino acids 1–716, FLAG-tagged, expressed in S2 cells
T2 sequence (Q9VYW2 1-716): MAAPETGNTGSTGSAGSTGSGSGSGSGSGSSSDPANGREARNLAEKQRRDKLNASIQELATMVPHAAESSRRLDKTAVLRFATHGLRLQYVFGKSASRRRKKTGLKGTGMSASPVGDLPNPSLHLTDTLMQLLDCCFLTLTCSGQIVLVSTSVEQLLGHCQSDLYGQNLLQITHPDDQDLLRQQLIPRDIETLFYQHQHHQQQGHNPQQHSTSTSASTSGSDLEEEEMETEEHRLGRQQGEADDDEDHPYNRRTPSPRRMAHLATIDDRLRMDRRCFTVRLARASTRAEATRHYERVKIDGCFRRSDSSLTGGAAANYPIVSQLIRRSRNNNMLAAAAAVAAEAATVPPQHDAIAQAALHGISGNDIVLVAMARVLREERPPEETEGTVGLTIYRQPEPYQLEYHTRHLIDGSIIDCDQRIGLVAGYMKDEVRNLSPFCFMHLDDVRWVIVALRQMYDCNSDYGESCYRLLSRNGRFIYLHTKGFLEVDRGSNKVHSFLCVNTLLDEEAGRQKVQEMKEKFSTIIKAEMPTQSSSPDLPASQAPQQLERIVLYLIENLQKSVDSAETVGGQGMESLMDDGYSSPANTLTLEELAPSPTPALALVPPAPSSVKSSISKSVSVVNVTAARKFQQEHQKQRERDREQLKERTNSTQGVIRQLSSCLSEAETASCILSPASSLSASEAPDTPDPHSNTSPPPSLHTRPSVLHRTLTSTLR

[3] = target: T1, Gce (germ cell-expressed); assay: competition radioligand binding against [3H]JH III, dextran-coated charcoal assay

| SMILES | Ki [3] [nM] | Ki ([3]; read-out: Ki) [nM] | further results |
| --- | --- | --- | --- |
| COC(=O)/C=C(\C)CC/C=C(\C)CCC1OC1(C)C (racemic) [JH III] | – | – | Kd [1]: 19.3 ± 4.5 nM; JHRE-luc reporter activity [2]: Like Gce, Met but not its mutated versions, mediated induction of JHRE-luc by JH III (Fig 3C) |
| COC(C)(C)CCC[C@H](C)C/C=C/C(C)=C/C(=O)OC(C)C (racemic) [methoprene] | 45.8 ± 28.9 | – | – |
| CC(C)=CCC/C(C)=C/CC/C(C)=C/CO [farnesol] | – | 8100 ± 2400 | – |
| COC(=O)/C=C(\C)CC/C=C(\C)CCC=C(C)C [methyl farnesoate] | – | 87.9 ± 22.2 | – |
| CC(COc1ccc(Oc2ccccc2)cc1)Oc1ccccn1 (stereo not drawn) [pyriproxyfen] | 5.7 ± 2.8 | – | – |
